Results reported in patent US20250205204A1, “Transcription Factor Brn2 Inhibitory Compounds for Use as Therapeutics” (The University of British Columbia, priority 2021, published 2025).
Where two headings read alike, the source gives them in different places.

What was measured:
[1] = Metabolic stability in liver microsomes (MLM); type: in vitro ADME, mice; conditions: 0.25 mg/mL protein; for half-life at 1 μM: mouse, liver microsomes, pH 7.4, 1 μM compound, read-out: T1/2 in mins (MLM); for Met Stab % (60 mins) MLM: percent remaining at 60 min, 1 μM compound, 1 mM NADPH
Protocol: Preparation of Potassium Phosphate Buffer, 50 mM (pH 7.4)
Potassium phosphate buffer (Kphos) was prepared by adding 0.647 g potassium phosphate monobasic (KH2PO4) and 3.527 g potassium phosphate dibasic (KH2PO4) to 400 mL of Milli-Q™ water. pH of the buffer was adjusted to 7.4 and volume was made up to 500 mL.
Preparation of Microsomes
Stock solutions of BRN2 inhibitors were prepared in DMSO at a concentration of 1 mM
Preparation of NADPH Solution
• Total Incubation volume: 100 μL • Compound concentration: 1 μM • Protein Concentration: 0.25 mg/mL • NADPH: 1 mM • Final DMSO contain: 0.1% • Number of replicates: 2 • Time points: 0, 5, 15, 30 and 60 min
From the above mix, 70 μL was added to individual wells of 96 well reaction plates and pre-incubated in a 37° C. water bath for 5 min. […] Reactions without NADPH and buffer controls (minus NADPH) at 0 min and 60 min were also incubated to rule out non-NADPH metabolism or chemical instability in the incubation buffer. All reactions were terminated using 100 μL of ice-cold acetonitrile containing internal standard at 0, 5, 15, 30 and 60 min.
Samples were monitored for parent compounds disappearance in MRM mode using LC-MS/MS.
The percent remaining of test compounds and positive control in each sample was determined by considering peak area ratio in the 0 minute sample as 100%. The Half-life of compounds in microsomes is calculated by formula: […]
In vitro intrinsic clearance (CL'int) (units in mL/min/kg) was calculated using the formula.
[formula] • For liver microsomes, scaling factor used was 45 mg microsomal protein per gm liver. • * Indicates liver weight (gm) which varies species wise. For mice the liver weights are 90 gm.

42D^ENZR cells = experiment: Cell proliferation, BRN2 expressing 42D cells (crystal violet); type: cell-based; conditions: for Growth Specificity: 42D (express BRN2) versus 16D (no BRN2) cells, result in words
Protocol: Step 3: Cell Proliferation
Plate 42DE^NZR (˜7000 cells per well) and 16D^CRPC (˜5000 cells per well) cells in 96 well plate with a volume of 100 μL per well. • 2. Next day 1 mL aliquots of media are combined with 3× the desired concentration of compounds. The aliquots are vortexed and 50 μL of each 3× concentration is added to the 100 μL of media in each well to give the ix desired concentration.
The following are the desired concentrations:
Approximately 72 hours later, 17 μL of 10% Glutaraldehyde is added to each well and plates are placed on a shaker for 20-30 minutes. • 4. Media is washed off the fixed cells by slow submersion in a container of water. Then the water is removed by tapping the plate upside down. • 5. 75 μL of Crystal Violet™ solution is added into the 96 well plates and placed on a shaker for ˜30 minutes. • 6. Media is washed off the fixed cells by repeated slow submersion in a container of water and the plates are allowed to dry over-night. • 7. Next day, 75 μL of Sorensen Solution is accurately pipetted into each well. The plates placed on a shaker for ˜30 minutes. • 8. Absorbance is measured in the plate at 590 nm.
There is a distinction in TABLES 1 and 2 difference between “Active” and “Specific” or “Specificity”.

[2] = read-out: IC50 (effective on both 42D and 16D cells)

| SMILES | half-life at 1 μM [1] [min] | Met Stab % (60 mins) MLM [1] [%] | Growth Specificity (42D^ENZR cells; about 72 hours) | IC50 (42D^ENZR cells; [2]) [µM] | IC50 (42D^ENZR cells; 42D cells, proliferation, about 72 hours, read-out: 42D IC50) [µM] |
| --- | --- | --- | --- | --- | --- |
| CN(/N=C1\CCc2ccccc21)c1nc2ccccc2s1 [7-30] | 11 | 1 | Non-specific. Effective on both 42D and 16D cells | – | – |
| N#Cc1ccc2nc(N/N=C3\CCc4ccccc43)sc2c1 [7-33] | 47 | 35 | Non-specific. Effective on both 42D and 16D cells | – | – |
| Clc1cccc2nc(N/N=C3\CCc4ccccc43)sc12 [7-34] | 6 | 0 | Non-specific. Effective on both 42D or 16D cells | – | – |
| FC1(F)Cc2ccccc2/C1=N/Nc1nc2ccccc2s1 [7-35] | 12 | 1 | Not effective on 42D or 16D cells | – | – |
| c1ccc2c(c1)Cc1nn(-c3nc4ccccc4s3)cc1-2 [7-37] | 16 | 7 | Not effective on 42D or 16D cells | – | – |
| Clc1ccc2c(c1)/C(=N\Nc1nc3ccccc3s1)CC2 [7-38] | 8 | 1 | Not effective on 42D or 16D cells | – | – |
| Fc1cc(F)c2nc(N/N=C3\CCc4ccccc43)sc2c1 [7-39] | 17 | 7 | Not effective on 42D or 16D cells | – | – |
| O=C1/C(=N\Nc2nc3ccccc3s2)CC2C=CC=CC12 (stereo not shown) [7-41] | 33 | 28 | Not effective on 42D or 16D cells | – | – |
| c1ccc2c(c1)CCC2c1cnn(-c2nc3ccccc3s2)c1 (stereo not shown) [7-43] | 10 | 1 | Not effective on 42D or 16D cells | – | – |
| c1ccc2c(c1)CCC2c1ccc(-c2nc3ccccc3s2)o1 (stereo not shown) [7-44] | 10 | 1 | Not effective on 42D or 16D cells | – | – |
| Fc1cc(Br)c2c(c1)/C(=N\Nc1ccc3ccccc3n1)CC2 [7-45] | 21 | 14 | Not effective on 42D or 16D cells | – | – |
| Cc1ccc2nc(N/N=C3/CCc4ccccc43)sc2c1 [7-46] | 13 | 5 | Not effective on 42D or 16D cells | – | – |
| Fc1ccc2nc(N/N=C3/CCc4ccccc43)sc2c1 [7-47] | 7 | 0 | Not effective on 42D or 16D cells | – | – |
| c1ccc2c(c1)CC/C2=N/Nc1ccc2ccccc2c1 [7-48] | 22 | 14 | Not effective on 42D or 16D cells | – | – |
| c1ccc2c(c1)CN(Nc1nc3ccccc3s1)C2 [7-49] | 14 | 1 | Not effective on 42D or 16D cells | – | – |
| O=C(Nc1nc2ccccc2s1)C1CCc2ccccc21 (stereo not shown) [7-51] | 12 | 1 | Not effective on 42D or 16D cells | – | – |
| CC1(C)C/C(=N/Nc2nc3ccccc3s2)c2ccccc21 [7-53] | 13 | 4 | effective on both 42D and 16D cells | 10 | – |
| C/C(=N\Nc1nc2ccccc2s1)c1ccccc1C [7-54] | – | 0 | Not effective on 42D or 16D cells | – | – |
| Fc1ccc2c(c1)/C(=N\Nc1nc3ccccc3s1)CC2 [7-56] | 8 | 0 | effective on both 42D and 16D cells | 10 | – |

| SMILES | half-life at 1 μM [1] [min] | Met Stab % (60 mins) MLM [1] [%] | Growth Specificity (42D^ENZR cells; about 72 hours) | IC50 (42D^ENZR cells; [2]) [µM] | IC50 (42D^ENZR cells; 42D cells, proliferation, about 72 hours, read-out: 42D IC50) [µM] |
| --- | --- | --- | --- | --- | --- |
| Fc1cccc2c1/C(=N\Nc1nc3ccccc3s1)CC2 [7-58] | 7 | 0 | effective on both 42D and 16D cells | 10 | – |
| c1ccc(N/N=C2\CCc3ccccc32)nc1 [7-60] | 8 | 0 | Not effective on 42D or 16D cells | – | – |
| CC1(C)Cc2ccccc2/C1=N\Nc1nc2ccccc2s1 [7-61] | 10 | 1 | effective on both 42D and 16D cells | 10 | – |
| Cc1nc(N/N=C2/CCc3ccccc32)sc1C [7-63] | 11 | 1 | Not effective on 42D or 16D cells | – | – |
| c1ccc2c(c1)CC/C2=N/Nc1nccs1 [7-64] | 8 | 0 | Not effective on 42D or 16D cells | – | – |
| CC1(C)/C(=N/Nc2nc3ccccc3s2)C(=O)c2ccccc21 [7-67, (Z)-2-(2-(benzo[d]thiazol-2-yl)hydrazineylidene)-3,3-dimethyl-2,3-dihydro-1H-inden-1-one] | 34 | 28 | not specific | – | – |
| COC(=O)C1/C(=N/Nc2nc3ccccc3s2)Cc2ccccc21 (stereo not shown) [7-68, methyl (E)-2-(2-(benzo[d]thiazol-2-yl)hydrazineylidene)-2,3-dihydro-1H-indene-1-carboxylate] | < 5 | 0 | not specific | – | – |
| O=C1c2ccccc2CC1/C=N/Nc1nc2ccccc2s1 (stereo not shown) [7-69, (E)-2-((2-(benzo[d]thiazol-2-yl)hydrazineylidene)methyl)-2,3-dihydro-1H-inden-1-one] | 44 | 33 | not specific | – | – |
| O=C1/C(=N\Nc2nc3ccccc3[nH]2)Cc2ccccc21 [7-76, (Z)-2-(2-(1H-benzo[d]imidazol-2-yl)hydrazineylidene)-2,3-dihydro-1H-inden-1-one] | 10 | 1 | Not effective on 42D or 16D cells | – | – |
| O=C1/C(=N\Nc2nc3ccccc3o2)Cc2ccccc21 [7-77, (Z)-2-(2-(benzo[d]oxazol-2-yl)hydrazineylidene)-2,3-dihydro-1H-inden-1-one] | 16 | 8 | Not specific | – | – |
| O=C1/C(=N\Nc2nc(-c3ccccc3)cs2)Cc2ccccc21 [7-78] | 32 | 32 | Not effective on 42D or 16D cells | – | – |
| Cn1c(N/N=C2/Cc3ccccc3C2=O)nc2ccccc21 [7-79] | 6 | 2 | Specific but weak | – | > 15 |
| O=C1/C(=N\Nc2ccc3ccccc3n2)Cc2ccccc21 [7-80, (Z)-2-(2-(quinolin-2-yl) hydrazineylidene)-2,3-dihydro-1H-inden-1-one] | 10 | 4 | Specific to 42D | – | – |
| O=C1/C(=N\Nc2cc3ccccc3s2)Cc2ccccc21 [7-83, (Z)-2-(2-(benzo[b]thiophen-2-yl)hydrazineylidene)-2,3-dihydro-1H-inden-1-one] | 17 | 16 | Not effective on 42D or 16D cells | – | – |
| O=c1c(=NNc2nc3ccccc3s2)c(=O)c2ccccc12 [7-85] | 32 | 25 | Not specific | – | – |
| O=C(NNc1nc2ccccc2s1)C1Cc2ccccc2C1=O (stereo not shown) [7-86] | 19 | 18 | Not specific | – | – |
| O=C(O)c1csc(N/N=C2/Cc3ccccc3C2=O)n1 [7-87] | > 60 | 98 | Not specific | – | – |
| O=C(O)c1cnc(N/N=C2/Cc3ccccc3C2=O)s1 [7-88] | > 60 | 94 | Not specific | – | – |
| O=C1/C(=N\Nc2nc3ccccc3s2)CCc2ccccc21 [7-89] | 11 | 2 | Not specific | – | – |
